The values below are quoted from earlier work in patent publication US11857510B2, “Methods and compositions for treating congenital diarrhea disorder” (NAPO PHARMACEUTICALS, INC., priority 2017, dated 2024).

For the data set the following is noted: human, in vivo.

Take Crofelemer: the “absorption from the GI tract” value was “little or no absorption”, the systemic bioavailability entry was “virtually no systemic bioavailability” and the tolerability entry is reported as “well tolerated”.
